# How the values were obtained:
# Test in all cases: radiometric filter-binding kinase assay
# [1] = system: AKT1 (human), P31749 [S473D]; details: ATP 5 µM
# [2] = molecular target: AKT2 (human) (UniProt P31751); details: ATP 50 µM
# [3] = molecular target: AURKB (human) (UniProt Q96GD4); details: ATP 20 µM
# [4] = molecular target: BRSK2 (human) (UniProt Q8IWQ3); details: ATP 50 µM
# [5] = molecular target: CHEK2 (human) (UniProt O96017); details: ATP 20 µM
# [6] = molecular target: CSK (human) (UniProt P41240); details: ATP 20 µM
# [7] = molecular target: CSNK1D (human) (UniProt P48730); details: ATP 20 µM
# [8] = molecular target: CaMK1 (human) (UniProt Q14012); details: ATP 50 µM
# [9] = molecular target: DYRK1A (human) (UniProt Q13627); details: ATP 50 µM
# [10] = molecular target: GSK3B (human) (UniProt P49841); details: ATP 5 µM
# [11] = molecular target: HIPK2 (human) (UniProt Q9H2X6); details: ATP 5 µM
# Sequence of HIPK2 (human) (Q9H2X6 whole entry, looked up): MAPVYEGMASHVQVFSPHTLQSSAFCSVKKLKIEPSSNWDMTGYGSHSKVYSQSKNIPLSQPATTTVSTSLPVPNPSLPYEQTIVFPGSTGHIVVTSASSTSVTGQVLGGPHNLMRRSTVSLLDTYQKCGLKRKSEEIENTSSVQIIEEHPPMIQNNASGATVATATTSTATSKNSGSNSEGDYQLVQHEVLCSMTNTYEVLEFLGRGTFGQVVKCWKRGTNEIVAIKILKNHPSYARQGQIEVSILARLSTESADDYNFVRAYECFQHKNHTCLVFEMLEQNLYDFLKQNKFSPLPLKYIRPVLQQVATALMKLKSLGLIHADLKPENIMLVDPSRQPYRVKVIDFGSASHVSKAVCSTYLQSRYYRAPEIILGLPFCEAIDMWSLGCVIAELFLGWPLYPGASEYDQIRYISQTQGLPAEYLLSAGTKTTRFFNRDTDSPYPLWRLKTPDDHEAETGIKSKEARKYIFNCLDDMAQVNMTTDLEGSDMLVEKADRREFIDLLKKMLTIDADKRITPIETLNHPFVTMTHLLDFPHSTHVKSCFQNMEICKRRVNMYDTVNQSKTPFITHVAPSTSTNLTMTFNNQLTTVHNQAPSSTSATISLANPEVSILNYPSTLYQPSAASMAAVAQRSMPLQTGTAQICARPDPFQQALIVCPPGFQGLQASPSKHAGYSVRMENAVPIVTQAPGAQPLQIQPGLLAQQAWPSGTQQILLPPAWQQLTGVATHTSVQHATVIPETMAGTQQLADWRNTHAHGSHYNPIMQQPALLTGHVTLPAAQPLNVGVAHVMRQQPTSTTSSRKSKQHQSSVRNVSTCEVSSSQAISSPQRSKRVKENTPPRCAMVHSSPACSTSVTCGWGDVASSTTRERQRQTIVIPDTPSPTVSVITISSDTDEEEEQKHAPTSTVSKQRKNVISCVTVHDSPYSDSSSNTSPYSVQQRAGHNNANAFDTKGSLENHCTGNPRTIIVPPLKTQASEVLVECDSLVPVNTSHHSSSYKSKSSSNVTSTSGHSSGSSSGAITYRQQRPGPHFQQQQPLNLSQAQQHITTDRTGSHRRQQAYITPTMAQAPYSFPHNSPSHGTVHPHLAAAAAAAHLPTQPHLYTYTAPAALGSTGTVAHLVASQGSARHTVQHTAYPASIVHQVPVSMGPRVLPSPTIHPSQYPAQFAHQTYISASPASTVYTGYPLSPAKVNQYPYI
# [12] = molecular target: IKBKB (human) (UniProt O14920); details: ATP 5 µM
# [13] = molecular target: MAPK11 (human) (UniProt Q15759); details: ATP 20 µM
# [14] = molecular target: MAPK12 (human) (UniProt P53778); details: ATP 5 µM
# [15] = molecular target: MAPK14 (human) (UniProt Q16539); details: ATP 50 µM
# [16] = molecular target: MAPK15 (human) (UniProt Q8TD08); details: ATP 5 µM
# [17] = molecular target: MAPK3 (human) (UniProt P27361); details: ATP 5 µM
# Sequence of MAPK3 (human) (P27361 whole entry, looked up): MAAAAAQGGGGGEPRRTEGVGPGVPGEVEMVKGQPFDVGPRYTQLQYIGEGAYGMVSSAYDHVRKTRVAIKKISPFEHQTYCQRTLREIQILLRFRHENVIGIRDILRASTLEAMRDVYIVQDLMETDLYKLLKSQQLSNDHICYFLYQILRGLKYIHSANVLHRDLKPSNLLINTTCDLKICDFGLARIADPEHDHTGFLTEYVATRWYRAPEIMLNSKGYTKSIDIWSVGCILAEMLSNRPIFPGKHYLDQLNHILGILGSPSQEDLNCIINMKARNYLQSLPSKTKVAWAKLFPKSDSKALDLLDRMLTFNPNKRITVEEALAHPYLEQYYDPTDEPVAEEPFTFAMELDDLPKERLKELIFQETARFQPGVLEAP
# [18] = molecular target: MAPK9 (human) (UniProt P45984); details: ATP 20 µM
# Sequence of MAPK9 (human) (P45984 whole entry, looked up): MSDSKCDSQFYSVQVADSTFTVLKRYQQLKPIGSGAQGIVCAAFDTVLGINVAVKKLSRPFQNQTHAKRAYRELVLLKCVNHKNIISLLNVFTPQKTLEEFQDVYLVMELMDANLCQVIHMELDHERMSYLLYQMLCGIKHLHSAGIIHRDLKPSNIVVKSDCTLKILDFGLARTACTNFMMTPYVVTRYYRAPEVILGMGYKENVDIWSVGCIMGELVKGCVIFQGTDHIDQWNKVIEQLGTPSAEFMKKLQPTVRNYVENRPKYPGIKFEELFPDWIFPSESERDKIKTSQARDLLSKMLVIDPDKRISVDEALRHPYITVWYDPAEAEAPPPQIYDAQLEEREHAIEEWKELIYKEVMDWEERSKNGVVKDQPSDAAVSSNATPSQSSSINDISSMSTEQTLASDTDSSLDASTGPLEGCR
# [19] = molecular target: MAPKAPK2 (human) (UniProt P49137); details: ATP 20 µM
# [20] = molecular target: MAPKAPK5 (human) (UniProt Q8IW41); details: ATP 20 µM
# [21] = molecular target: MELK (human) (UniProt Q14680); details: ATP 50 µM
# [22] = molecular target: MKNK1 (human) (UniProt Q9BUB5); details: ATP 50 µM
# [23] = molecular target: NEK7 (human) (UniProt Q8TDX7); details: ATP 20 µM
# [24] = molecular target: PAK6 (human) (UniProt Q9NQU5); details: ATP 20 µM
# Sequence of PAK6 (human) (Q9NQU5 whole entry, looked up): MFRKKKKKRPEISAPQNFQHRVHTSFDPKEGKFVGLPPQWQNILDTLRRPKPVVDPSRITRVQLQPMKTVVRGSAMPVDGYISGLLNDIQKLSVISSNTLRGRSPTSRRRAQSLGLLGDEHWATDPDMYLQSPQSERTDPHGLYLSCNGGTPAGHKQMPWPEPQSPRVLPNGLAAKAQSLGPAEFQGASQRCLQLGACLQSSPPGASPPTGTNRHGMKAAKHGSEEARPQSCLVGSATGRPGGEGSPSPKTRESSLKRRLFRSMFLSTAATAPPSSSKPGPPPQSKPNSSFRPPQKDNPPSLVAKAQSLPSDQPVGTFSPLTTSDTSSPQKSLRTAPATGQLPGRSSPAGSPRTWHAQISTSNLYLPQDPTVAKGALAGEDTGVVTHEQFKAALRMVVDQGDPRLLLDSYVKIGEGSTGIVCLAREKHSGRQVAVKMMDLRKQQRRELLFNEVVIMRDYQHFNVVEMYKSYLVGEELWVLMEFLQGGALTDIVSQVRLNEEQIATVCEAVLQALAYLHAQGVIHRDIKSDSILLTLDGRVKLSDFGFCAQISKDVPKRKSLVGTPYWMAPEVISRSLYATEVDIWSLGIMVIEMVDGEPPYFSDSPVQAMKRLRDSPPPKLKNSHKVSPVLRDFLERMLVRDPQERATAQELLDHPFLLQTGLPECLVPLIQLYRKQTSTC
# [25] = molecular target: PAK7 (human) (UniProt Q9P286); details: ATP 20 µM
# [26] = molecular target: PIM1 (human) (UniProt P11309); details: ATP 20 µM
# Sequence of PIM1 (human) (P11309 whole entry, looked up): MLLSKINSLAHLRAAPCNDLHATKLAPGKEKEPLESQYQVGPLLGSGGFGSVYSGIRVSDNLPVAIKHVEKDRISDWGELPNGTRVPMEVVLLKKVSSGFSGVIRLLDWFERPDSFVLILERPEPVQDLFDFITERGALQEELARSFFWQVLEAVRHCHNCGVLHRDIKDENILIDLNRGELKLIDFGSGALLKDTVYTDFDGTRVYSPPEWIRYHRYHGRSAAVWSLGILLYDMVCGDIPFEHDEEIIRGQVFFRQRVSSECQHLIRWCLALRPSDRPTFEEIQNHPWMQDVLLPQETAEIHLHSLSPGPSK
# [27] = molecular target: PIM2 (human) (UniProt Q9P1W9); details: ATP 5 µM
# [28] = molecular target: PIM3 (human) (UniProt Q86V86); details: ATP 20 µM
# [29] = molecular target: PLK1 (human) (UniProt P53350); details: ATP 5 µM
# Sequence of PLK1 (human) (P53350 whole entry, looked up): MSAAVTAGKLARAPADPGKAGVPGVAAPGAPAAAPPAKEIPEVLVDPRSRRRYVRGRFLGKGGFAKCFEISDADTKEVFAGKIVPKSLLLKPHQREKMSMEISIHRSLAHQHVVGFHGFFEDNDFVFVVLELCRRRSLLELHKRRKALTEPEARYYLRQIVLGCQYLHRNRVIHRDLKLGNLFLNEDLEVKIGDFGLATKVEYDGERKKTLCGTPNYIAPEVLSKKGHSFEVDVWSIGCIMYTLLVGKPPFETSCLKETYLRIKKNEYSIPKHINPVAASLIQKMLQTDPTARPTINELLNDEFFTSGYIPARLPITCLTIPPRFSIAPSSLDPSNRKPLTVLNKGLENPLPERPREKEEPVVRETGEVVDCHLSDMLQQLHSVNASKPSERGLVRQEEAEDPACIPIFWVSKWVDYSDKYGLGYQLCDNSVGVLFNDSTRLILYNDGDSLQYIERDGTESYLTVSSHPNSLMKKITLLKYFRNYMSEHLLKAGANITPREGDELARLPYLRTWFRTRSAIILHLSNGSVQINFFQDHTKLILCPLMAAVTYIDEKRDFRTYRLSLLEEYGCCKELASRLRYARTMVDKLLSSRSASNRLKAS
# [30] = system: PRKAA1 or PRKAA2 (rat); details: compound 0.01 µM; accession and sequence are those of the human protein
# [31] = molecular target: PRKCA (human) (UniProt P17252); details: ATP 20 µM
# [32] = molecular target: PRKCG (human) (UniProt P05129); details: ATP 5 µM
# [33] = molecular target: ROCK2 (human) (UniProt O75116); details: ATP 20 µM
# [34] = molecular target: RPS6KA1 KD1 KD2 (human) (UniProt Q15418); details: ATP 50 µM
# [35] = molecular target: RPS6KA3 KD1 KD2 (human) (UniProt P51812); details: ATP 50 µM
# [36] = molecular target: RPS6KA5 KD1 KD2 (human) (UniProt O75582); details: ATP 20 µM
# Sequence of RPS6KA5 KD1 KD2 (human) (O75582 whole entry, looked up): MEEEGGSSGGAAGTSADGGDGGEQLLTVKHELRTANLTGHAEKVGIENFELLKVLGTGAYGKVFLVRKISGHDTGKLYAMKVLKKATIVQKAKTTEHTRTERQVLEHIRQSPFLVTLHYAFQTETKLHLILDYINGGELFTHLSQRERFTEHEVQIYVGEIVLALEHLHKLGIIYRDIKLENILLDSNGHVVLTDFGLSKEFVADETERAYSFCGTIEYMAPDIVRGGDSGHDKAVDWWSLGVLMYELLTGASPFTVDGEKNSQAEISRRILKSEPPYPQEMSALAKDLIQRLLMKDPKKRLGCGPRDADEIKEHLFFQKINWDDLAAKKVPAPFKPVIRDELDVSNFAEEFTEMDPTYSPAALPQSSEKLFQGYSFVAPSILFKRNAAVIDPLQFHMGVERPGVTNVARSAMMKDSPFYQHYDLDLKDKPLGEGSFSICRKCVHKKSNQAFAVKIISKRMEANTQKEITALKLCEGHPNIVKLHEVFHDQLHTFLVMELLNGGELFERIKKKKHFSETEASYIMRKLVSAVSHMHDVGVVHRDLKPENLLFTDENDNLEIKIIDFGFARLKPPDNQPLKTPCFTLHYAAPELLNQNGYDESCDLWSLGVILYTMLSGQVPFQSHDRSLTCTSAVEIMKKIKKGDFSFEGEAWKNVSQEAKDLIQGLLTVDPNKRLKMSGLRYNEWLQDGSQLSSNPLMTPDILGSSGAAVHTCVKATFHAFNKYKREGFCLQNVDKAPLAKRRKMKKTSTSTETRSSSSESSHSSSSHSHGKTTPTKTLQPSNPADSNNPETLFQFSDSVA
# [37] = system: RPS6KB1 (human), P23443 [T412E]; details: ATP 20 µM
# Sequence of RPS6KB1 (human), P23443 [T412E] (P23443 whole entry T412E, looked up): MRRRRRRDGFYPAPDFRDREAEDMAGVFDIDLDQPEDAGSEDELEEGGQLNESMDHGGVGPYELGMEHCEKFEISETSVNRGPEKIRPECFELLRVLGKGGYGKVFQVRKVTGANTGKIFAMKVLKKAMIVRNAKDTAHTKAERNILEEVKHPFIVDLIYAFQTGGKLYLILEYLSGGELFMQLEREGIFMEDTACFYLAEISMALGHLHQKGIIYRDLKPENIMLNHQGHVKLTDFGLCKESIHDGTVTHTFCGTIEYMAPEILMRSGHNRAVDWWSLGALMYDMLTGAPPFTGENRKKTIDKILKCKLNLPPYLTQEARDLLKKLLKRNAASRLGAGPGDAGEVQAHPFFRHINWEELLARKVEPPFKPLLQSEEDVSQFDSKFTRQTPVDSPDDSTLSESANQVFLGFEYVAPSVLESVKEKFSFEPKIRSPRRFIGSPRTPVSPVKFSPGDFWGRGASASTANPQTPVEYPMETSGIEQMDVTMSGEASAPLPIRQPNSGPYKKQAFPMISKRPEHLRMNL
# [38] = system: SGK1 (human), O00141 [S422D]; details: ATP 20 µM
# [39] = molecular target: CDK2 CCNA2 (human) (UniProt P24941+P20248); details: ATP 20 µM
# [40] = molecular target: SRPK1 (human) (UniProt Q96SB4); details: compound 10.0 µM; ATP 50 µM
smiles,measurement,setting,value
CN[C@@H]1C[C@@H]2O[C@@](C)([C@@H]1OC)n1c3ccccc3c3c4c(c5c6ccccc6n2c5c31)C(=O)N[C@@H]4O,residual activity,[1]; compound 0.01 µM,79%
same,residual activity,[2]; compound 0.01 µM,77%
same,residual activity,[3]; compound 0.01 µM,59%
same,residual activity,[4]; compound 0.01 µM,27%
same,residual activity,[5]; compound 0.01 µM,96%
same,residual activity,[6]; compound 0.01 µM,80%
same,residual activity,[7]; compound 0.01 µM,96%
same,residual activity,[8]; compound 0.01 µM,86%
same,residual activity,[9]; compound 0.01 µM,90%
same,residual activity,[10]; compound 0.01 µM,77%
same,residual activity,[11]; compound 0.01 µM,109%
same,residual activity,[12]; compound 0.01 µM,86%
same,residual activity,[13]; compound 0.01 µM,105%
same,residual activity,[14]; compound 0.01 µM,104%
same,residual activity,[15]; compound 0.01 µM,105%
same,residual activity,[16]; compound 0.01 µM,92%
same,residual activity,[17]; compound 0.01 µM,112%
same,residual activity,[18]; compound 0.01 µM,92%
same,residual activity,[19]; compound 0.01 µM,75%
same,residual activity,[20]; compound 0.01 µM,83%
same,residual activity,[21]; compound 0.01 µM,53%
same,residual activity,[22]; compound 0.01 µM,85%
same,residual activity,[23]; compound 0.01 µM,99%
same,residual activity,[24]; compound 0.01 µM,35%
same,residual activity,[25]; compound 0.01 µM,36%
same,residual activity,[26]; compound 0.01 µM,52%
same,residual activity,[27]; compound 0.01 µM,73%
same,residual activity,[28]; compound 0.01 µM,8%
same,residual activity,[29]; compound 0.01 µM,76%
same,residual activity,[30],9%
same,residual activity,[31]; compound 0.01 µM,6%
same,residual activity,[32]; compound 0.01 µM,78%
same,residual activity,[33]; compound 0.01 µM,86%
same,residual activity,[34]; compound 0.01 µM,25%
same,residual activity,[35]; compound 0.01 µM,29%
same,residual activity,[36]; compound 0.01 µM,68%
same,residual activity,[37]; compound 0.01 µM,96%
same,residual activity,[38]; compound 0.01 µM,83%
CC(C)(N)c1ccc(-c2nc3ccccc3nc2-c2ccccc2)cc1,residual activity,[1]; compound 10.0 µM,64%
same,residual activity,[3]; compound 1.0 µM,82%
same,residual activity,[3]; compound 10.0 µM,60%
same,residual activity,[4]; compound 1.0 µM,96%
same,residual activity,[39]; compound 1.0 µM,97%
same,residual activity,[5]; compound 10.0 µM,83%
same,residual activity,[6]; compound 1.0 µM,87%
same,residual activity,[7]; compound 10.0 µM,111%
same,residual activity,[8]; compound 1.0 µM,43%
same,residual activity,[8]; compound 10.0 µM,3%
same,residual activity,[10]; compound 1.0 µM,89%
same,residual activity,[11]; compound 1.0 µM,102%
same,residual activity,[11]; compound 10.0 µM,85%
same,residual activity,[12]; compound 10.0 µM,90%
same,residual activity,[13]; compound 10.0 µM,114%
same,residual activity,[16]; compound 10.0 µM,71%
same,residual activity,[17]; compound 1.0 µM,93%
same,residual activity,[17]; compound 10.0 µM,100%
same,residual activity,[18]; compound 1.0 µM,105%
same,residual activity,[19]; compound 1.0 µM,84%
same,residual activity,[19]; compound 10.0 µM,60%
same,residual activity,[20]; compound 1.0 µM,85%
same,residual activity,[20]; compound 10.0 µM,79%
same,residual activity,[21]; compound 1.0 µM,80%
same,residual activity,[21]; compound 10.0 µM,68%
same,residual activity,[22]; compound 1.0 µM,77%
same,residual activity,[22]; compound 10.0 µM,84%
same,residual activity,[23]; compound 1.0 µM,91%
same,residual activity,[24]; compound 1.0 µM,116%
same,residual activity,[24]; compound 10.0 µM,92%
same,residual activity,[25]; compound 1.0 µM,96%
same,residual activity,[25]; compound 10.0 µM,61%
same,residual activity,[26]; compound 1.0 µM,80%
same,residual activity,[26]; compound 10.0 µM,57%
same,residual activity,[27]; compound 1.0 µM,88%
same,residual activity,[27]; compound 10.0 µM,89%
same,residual activity,[28]; compound 10.0 µM,60%
same,residual activity,[29]; compound 1.0 µM,79%
same,residual activity,[29]; compound 10.0 µM,90%
same,residual activity,[31]; compound 1.0 µM,108%
same,residual activity,[31]; compound 10.0 µM,87%
same,residual activity,[32]; compound 1.0 µM,105%
same,residual activity,[32]; compound 10.0 µM,96%
same,residual activity,[33]; compound 10.0 µM,92%
same,residual activity,[34]; compound 1.0 µM,98%
same,residual activity,[34]; compound 10.0 µM,67%
same,residual activity,[35]; compound 1.0 µM,80%
same,residual activity,[35]; compound 10.0 µM,74%
same,residual activity,[36]; compound 1.0 µM,81%
same,residual activity,[37]; compound 1.0 µM,100%
same,residual activity,[37]; compound 10.0 µM,72%
same,residual activity,[38]; compound 10.0 µM,82%
N#CC(=C(\N)Sc1ccccc1N)/C(C#N)=C(/N)Sc1ccccc1N,residual activity,[1]; compound 10.0 µM,76%
same,residual activity,[2]; compound 10.0 µM,98%
same,residual activity,[3]; compound 10.0 µM,86%
same,residual activity,[39]; compound 10.0 µM,86%
same,residual activity,[5]; compound 10.0 µM,98%
same,residual activity,[8]; compound 10.0 µM,69%
same,residual activity,[9]; compound 10.0 µM,69%
same,residual activity,[10]; compound 10.0 µM,82%
same,residual activity,[11]; compound 10.0 µM,97%
same,residual activity,[12]; compound 10.0 µM,118%
same,residual activity,[13]; compound 10.0 µM,91%
same,residual activity,[14]; compound 10.0 µM,90%
same,residual activity,[15]; compound 10.0 µM,77%
same,residual activity,[16]; compound 10.0 µM,67%
same,residual activity,[17]; compound 10.0 µM,72%
same,residual activity,[18]; compound 10.0 µM,73%
same,residual activity,[19]; compound 10.0 µM,95%
same,residual activity,[20]; compound 10.0 µM,92%
same,residual activity,[22]; compound 10.0 µM,78%
same,residual activity,[23]; compound 10.0 µM,97%
same,residual activity,[25]; compound 10.0 µM,86%
same,residual activity,[26]; compound 10.0 µM,87%
same,residual activity,[27]; compound 10.0 µM,101%
same,residual activity,[28]; compound 10.0 µM,63%
same,residual activity,[29]; compound 10.0 µM,92%
same,residual activity,[31]; compound 10.0 µM,95%
same,residual activity,[32]; compound 10.0 µM,78%
same,residual activity,[33]; compound 10.0 µM,81%
same,residual activity,[34]; compound 10.0 µM,83%
same,residual activity,[35]; compound 10.0 µM,81%
same,residual activity,[36]; compound 10.0 µM,85%
same,residual activity,[37]; compound 10.0 µM,93%
same,residual activity,[38]; compound 10.0 µM,72%
same,residual activity,[40],102%
